This is an account of results in PMC12192727, “Strategies to Develop Na,K-ATPase-α4 Inhibitors as Male Contraceptives” (International Journal of Molecular Sciences, 2025).

One data set relates to mouse sperm. Briefly: Mouse sperm total motility in vitro (CASA). The data set is classed as cell-based. To be noted: for Emax: Mus musculus, Sperm, 1 h, nanomolar range concentration, read-out: Maximal Motility Inhibition (%). As for the experimental part: To characterize the SAR of these compounds, we first evaluated their effects on total sperm motility in vitro. Sperm isolated from the cauda epididymis of mice were incubated with the test compounds in modified Whitten’s medium under non-capacitating conditions. Motility was assessed using a computer-assisted sperm analysis (CASA) system.
All experimental protocols involving animals used in this work were approved by the University of Kansas Medical Center Institutional Animal Care and Use Committee (ACUP number: 22-09-26, 10/2022). C57BL/6 mice were purchased from Harlan (Indianapolis, IN, USA). Spermatozoa were isolated from the cauda of adult mouse epididymis in Whitten’s medium, containing 100 mM NaCl, 4.7 mM KCl, 1.2 mM KH2PO4, 1.2 mM MgSO4, 5.5 mM glucose, 0.8 mM pyruvic acid, 4.8 mM lactic acid, and 40 mM Hepes, as previously described.
Spermatozoa (1 × 10^6 cells) were incubated at 37 °C in 100 μL of Whitten’s medium, with the addition of 1.7 mM CaCl2 and in the absence and presence of different amounts of the tested compounds for 60 min. Then, cells were labeled with the fluorescent nucleic acid stain SYTO 21, which allows for the tracking of the movement of the cell head. After 1 min of incubation with the dye, 5.5 μL aliquots from each sample were taken and placed into a glass cell chamber (Leja Products B.V., Nieuw-Vennep, The Netherlands). Sperm were maintained at 37 °C on a heated platform and viewed with an Olympus BX51 microscope (Olympus, Center Valley, PA, USA) through a 20× phase objective. Images of the moving sperm were captured using a CCD camera. Samples were analyzed by CASA using the Minitube SpermVision Digital Semen Evaluation system (version 3.5; Penetrating Innovations, Verona, WI, USA). An average of 200 cells/field were captured, at a rate of 30 frames per field, and a total of 10 fields in each sample were analyzed. Total sperm motility was obtained from sperm maintained in a non-capacitating medium, while for assessing the hyperactive pattern of motility, typical of sperm capacitation, cells were incubated in Whitten’s medium with the addition of 1.7 mM CaCl2, 25 mM sodium bicarbonate, and 0.5% bovine serum albumin.
Figure 2 Effect of simplified steroidal analogs on mouse sperm total motility. Sperm was isolated from the cauda epididymis and treated in the absence and presence of the indicated concentrations of each compound. After one hour of incubation, sperm motility was determined by CASA. Values are expressed as the mean ± SEM of three determinations.
Figure 4 Effect of non-steroidal small compounds on mouse sperm total motility. Sperm was isolated from the cauda epididymis and treated in the absence and presence of the indicated concentrations of each compound. After 1 h of incubation, sperm motility was determined by CASA. Values are expressed as the mean ± SEM of three determinations.

The next data set can be described thus: physchem. The data set is classed as physicochemical. The conditions noted are these: PBS pH 7.4. As for the experimental part:
The stock solutions of 11 and 45 were prepared in DMSO at a concentration of 30 mM, and the stock solution of the control compound was prepared in DMSO at a concentration of 30 mM. Progesterone was used as a positive control in the assay. An amount of 10 µL of stock solution of each compound was placed in order into their proper 96-well rack, followed by adding 990 µL of PBS at pH 7.4 into each vial of the capless Solubility Sample plate. This study was performed in duplicate. One stir stick was added to each vial and then sealed using a molded PTDE/SIL 96-Well Plate Cover (Pharmaron, Waltman, MA, USA). The Solubility Sample plate was transferred to the Thermomixer Comfort plate shaker and incubated at RT for 2 h with shaking at 1100 rpm. After 2 h of incubation, stir sticks were removed using a big magnet, and all samples from the Solubility Sample plate were transferred into the filter plate. All the samples were filtered using a vacuum manifold. The filtered samples were diluted with methanol. The soluble fraction (filtrate) was then analyzed by LC-MS/MS, and the compound concentration was determined using 0.3 μM standard solutions prepared from DMSO stocks. The experimental details are reported in the Supporting Information (Table S1). […]
Table S1 . Solubility Results of Test C ompound and Control C ompound in […]
Compound ID Solubility (µM)
Preparation of Stock Solutions: The stock solutions of test compounds were prepared in DMSO at the concentration of 30 mM, and the stock solution of control compound was prepared in DMSO at the concentration of 30 mM.
Progesterone was used as positive control in the assay.
Solubility Determination: 10 µL stock solution of each compound was placed in order into their proper 96-well rack, followed by adding 990 µL of PBS at pH 7.4 into each vial of the cap-less Solubility Sample plate. This study was performed in duplicate. One stir stick was added to each vial and then vials were sealed using a molded PTDE/SIL 96-Well Plate Cover. The Solubility Sample plate was transferred to the Thermomixer Comfort plate shaker and incubated at RT for 2 hours with shaking at 1100 rpm. After 2 hours incubation, stir sticks were removed using a big magnet and all samples from the Solubility Sample plate were transferred into the filter plate. All the samples were filtered by using the Vacuum Manifold. The filtered samples were diluted with methanol. The dilution factor might be changed according to the solubility value and the LC/MS signal response. To prepare 0.3 µM Standards (STD), 30 mM DMSO compound stock solutions were diluted with DMSO to 300 µM and then diluted with methanol to obtain 0.3 µM STDs. Samples were analyzed by LC-MS/MS. All calculations were carried out using Microsoft Excel. The solution filtered was analyzed and quantified against a standard of known concentration in DMSO using LC coupled with Mass spectral peak identification and quantitation. The solubility values of the test compounds were calculated as follow DF means the dilution factor
1. Chromatographic conditions
Apparatus: Triple QuadTM 5500 instrument from AB Inc (Canada) with an ESI interface Column: XSelect Hss T3 2.5µ (2.1×50 mm) Column XP coupled with preguard column Mobile phase: 0.1% formic acid in acetonitrile (A) and 0.1% formic acid in water (B) […]

Setting [1] is: simplified steroid analogs, mouse sperm motility.
Setting [2] is: aqueous buffer, kinetic from dmso stock, read-out: Solubility.

≈ marks a conversion by molar mass, not a printed value. Like-named read-outs stand apart in the source and are kept apart here.

The term IC50 denotes the midpoint of a concentration-inhibition curve. High values mean weaker potency in that assay, low ones greater potency in that assay. As usually defined, the Solubility is how much of the substance goes into solution per volume. `C[C@]12CC[C@H]3[C@@H](CC=C4C[C@@H](O)CC[C@@]43C)[C@@H]1CC[C@@H]2c1cn(Cc2ccccc2)nn1` [Compound 13, (3S,8S,9S,10R,13S,14S,17S)-17-(1-Benzyl-1H-1,2,3-triazol-4-yl)-10,13-dimethyl-2,3,4,7,8,9,10,11,12,13,14,15,16,17-tetradecahydro-1H-cyclopenta[a]phenanthren-3-ol]: the Emax in the data set on mouse sperm (simplified steroid analogs, mouse sperm total motility) came out at 41%. Moreover, the “Shape of inhibitory dose response on sperm motility” value in the data set on mouse sperm (mouse sperm total motility) is recorded as “monotonic inhibitory response”. Further, in the data set on mouse sperm (setting [1]), the IC50 amounted to 0.024 nM and the “IC50 (pM)” value is on record as “sub-nanomolar range”. The Solubility result in the data set “physchem” is “poor”. For the same molecule, the Solubility in “physchem” (setting [2]) came to 0.3 µM (≈ 0.129 µg/mL).
With `CC12CCC(=O)C=C1CCCC2n1cc(-c2ccccc2)nn1` (stereo not shown) [Compound 45, 4a-Methyl-5-(4-phenyl-1H-1,2,3-triazol-1-yl)-4,4a,5,6,7,8-hexahydronaphthalen-2(3H)-one], in the data set on mouse sperm (non-steroidal small molecules, mouse sperm total motility), the Emax was roughly 50%. In addition, in the data set on mouse sperm (non-steroidal small molecules, mouse sperm motility), the concentration for half-maximal inhibition (IC50) was found to be 0.048 nM. For the same molecule, the Solubility entry is “good” in “physchem” and 256 µM (≈ 78.7 µg/mL) in the data set “physchem” (setting [2]).
